Data on 90 compounds can be found in a melting point compilation (Tetko et al.; mined from patent text by program, amines drawn as free bases though some values may be those of a salt).

For the compound `CC1(C)CCCC(=Cc2ccc(Cl)cc2)C1=O`, the melting point (in general, the temperature, or range, at which the solid turns liquid) was determined as 92 °C.
The result for `NC(=S)NCc1ccccc1Cl` reads 120 to 122 °C.
The same measure for `CCOC(=O)C1=C(COCc2nnn(CCNc3ccc(S(=O)(=O)N4CCOCC4)cn3)n2)NC(C)=C(C(=O)OC)C1c1cccc(Cl)c1Cl` (stereo not given): 112 to 114 °C; for `COc1cc2nc(C)c(CO)nc2cc1OC`: 176 to 177 °C.
For the compound `O=C1NCC[C@H](c2ccc(C(F)(F)F)cc2)[C@@H]1c1ccccc1` (relative stereo), the melting point was 155 to 156 °C.
The same measure for `CC(C)(S)C(N)P(C)(=O)O` (stereo not given): 221 °C; for `CC(C)(C)c1ccc(CN(Cc2cccc(OCC(=O)O)c2)S(=O)(=O)c2cccnc2)cc1`: 159 to 160 °C; for `Cc1oc(-c2ccccc2)nc1COc1cccc(N)c1`: 89 to 90 °C.
`Cc1ccc(S(=O)(=O)OCC2Cc3cccc(-c4ccc(F)cc4)c3O2)cc1` (stereo not given) returned a melting point of 83 to 86 °C.
Turning to `CCCCC(CC(=O)Nc1cc(C(N)=O)ccc1C(C)(C)C)c1cc(Cl)c(OCCCOC)cc1OC` (stereo not given), the melting point lay within 176 to 190 °C.
The compound `NC(=O)c1cccnc1Oc1cccc(Cl)c1` came in with a melting point of 225 to 228 °C.
For `COc1ccc(CC2CCC3NC(=O)C(CO)CC3C2)cc1` (stereo not given), the melting point is 193 to 200 °C.
The same measure for `O=c1c2cc(F)ccc2[nH]c2c([N+](=O)[O-])ccc(Cl)c12`: 287 to 291 °C; for `C[C@H](N)C(c1ccccc1)c1ccccc1`: 76 to 77 °C; for `CC(C)c1nc2cc(NC(=O)OC(C)(C)C)ccn2n1`: 215 to 218 °C.
The same measure for `CCOC(=O)C(C)(O)c1ccncc1F` (stereo not given): 56 to 60 °C; for `Cc1c(C)c2c(c(C)c1N)CC(C)(CN1CCC(O)(c3ccc(Cl)cc3)CC1)O2` (stereo not given): 118 to 120 °C; for `O=C(O)CN(Cn1nnc2ccccc21)Cn1nnc2ccccc21`: 163 to 166 °C.
The same measure for `CCn1c(N)c(C(N)=O)c(=O)c2cnc(Nc3ccc(N4CCN(C(C)=O)CC4)cc3)nc21`: 179 °C; for `CCOC(=O)c1ncc2[nH]c3ccc(C#N)cc3c2c1COC`: 252 to 255 °C.
With `Cc1cccc(-c2c(C3CCN(C)CC3)[nH]c(=O)c3ccccc23)c1`, the melting point is 214 to 216 °C.
As for `COc1cc2c(-c3cc4cccnc4[nH]3)cn(C)c2cc1O`, the melting point was 250 °C.
As to `CCN(CC)CCNC(=O)N(CCS(=O)(=O)c1ccc(OC)cc1)C(C)C`, the melting point was in the range of 39.5 to 42 °C.
The same measure for `O=C(O)CC1c2ccccc2COc2ccccc21` (stereo not given): 114 to 115 °C; for `COC(=O)c1cc(Cl)c(OC)c(Cl)c1N`: 72 to 73 °C.
The compound `Cc1c([N+](=O)[O-])c([N+](=O)[O-])c(Cl)c2c1=NC(=O)C(=O)N=2` came in with a melting point of 346 to 348 °C.
The same measure for `COc1cc2c(cc1/C=C/CCO)oc1cc(-c3ccccc3Cl)c3c(c12)C(=O)NC3=O`: 247 to 250 °C.
The result for `COc1ccc(NC(=O)c2ccc3c(c2)C(C)(C)C(=O)N3)cc1` reads 169 to 171 °C; that for `CCC(=O)c1ccc(Oc2ccc(-c3scc(-c4ccccc4Cl)c3CC(=O)N=C(N)N)cc2)cc1`, 123 to 124 °C; that for `Cc1cccc2c1N(C)C(=O)C(NC(=O)Nc1cccc(-c3nnn[nH]3)c1)N=C2C1CCCCC1` (stereo not given), 199 to 201 °C.
The result for `O=[N+]([O-])c1ccc(SSc2ncccn2)c(C(Cl)(Cl)Cl)c1` reads 98 to 99 °C; that for `OCC1OC(n2c(Cl)nc3cc(Cl)ccc32)C(O)C1O` (stereo not given), 102 to 150 °C.
Take `CC(=O)OCc1cc([N+](=O)[O-])ccc1N1C(=O)c2ccc(Cl)cc2C1=O`: the melting point fell in the range of 124 to 125 °C.
The result for `O=[N+]([O-])c1ccc(N2CCN(c3cc(N4CCCC4)nc(N4CCCC4)n3)CC2)cc1` reads 200 to 201 °C.
For the compound `CCCCCC(=O)OCn1cnc2c1c(=O)n(C)c(=O)n2C`, the melting point was 67 to 72 °C.
`O=C(O)C=CC(=O)Oc1ccccc1` returned a melting point of 127 to 128 °C.
For `CCCCc1csc2ccc3[nH]c4c(c3c12)CNCC4`, the melting point was 224 to 225 °C.
The same measure for `CS(=O)(=O)N1CCSc2ccccc2C1`: 98 to 100 °C.
Compound `O=C(Oc1ccc(Oc2ccccc2)cc1)c1ccc(C(=O)Oc2ccc(Oc3ccccc3)cc2)cc1` returned a melting point of 193 to 194 °C.
The result for `O=C(O)Cc1ccc(-n2cc(F)cn2)c(Cl)c1` reads 110 to 112 °C; that for `Cn1cc(C(=O)c2ccccn2)cc1C(=O)c1ccc(Cl)cc1`, 138 to 139 °C; that for `CN(C)C1CCN(c2nc(N3CCc4ccccc4C3)c3ncnc(N4CCOCC4)c3n2)CC1`, 49 to 53 °C.
`COC(=O)C1=C(CCc2ccccc2)NC(CC(=O)N2CCN(C)CC2)=C(C(=O)OC)C1c1ccccc1Cl` (stereo not given) showed a melting point of 138 °C.
The result for `COC(=O)C(c1ccc(Cl)cc1)c1c(Cl)cc(-n2ncc(=O)[nH]c2=O)cc1Cl` (stereo not given) reads 121 °C; that for `O=C(NCCCCCCCNC(=O)c1ccc(OC(F)(F)C(F)Cl)cc1)c1ccc(OC(F)(F)C(F)Cl)cc1` (stereo not given), 153 to 154 °C.
For `C#CCOc1ccc2c(c1)c(-c1ccc(C(C)C)cc1)nc(=O)n2Cc1cccnc1O`, the melting point fell in the range of 121 to 123 °C.
In turn, `O=CN1CCN(C(=O)CCBr)CC1` registered a melting point of 96 to 98 °C.
The result for `CCOC(=O)CNC(=O)CS(=O)(=O)Nc1ccc(F)c(C(F)(F)F)c1` reads 145 to 147 °C.
The result for `CCC1(Cl)Cc2cc(OCCCC(=O)O)c(Cl)c(Cl)c2C1=O` (stereo not given) reads 123 to 124 °C.
Take `Brc1ccc2c(c1)CC(N1CCNCC1)c1ccccc1S2` (stereo not given): the melting point is 112 to 115 °C.
In turn, `COc1ccc(C=C2CCN(C(=O)OCc3ccccc3)CC2)cc1[N+](=O)[O-]` gave a melting point of 107 to 108 °C.
The result for `CSC(c1ccccc1)S(=O)c1ccccc1` (stereo not given) reads 104 to 105 °C; that for `CCOC(=O)C1=C(C)Nc2nc(N)nc(N3CCOCC3)c2C1c1cccc([N+](=O)[O-])c1` (stereo not given), 208 °C; that for `CC1NC(=O)NN=C1c1ccc2c(c1)C(C)(C)C(=O)N2` (stereo not given), 292 °C.
`CCNc1ncc(Nc2ccc(Cl)cc2)nc1-n1nc(C)cc1C`: the melting point lay within 122 to 124 °C.
The result for `Cc1nccn1N=Cc1ccccc1` reads 122 to 124 °C; that for `CC(C)(C)OC(=O)CN1CC(c2ccc(F)cc2)CCC(N=[N+]=[N-])C1=O` (stereo not given), 136 to 137 °C.
`CN(C(=O)c1ccccc1)C(=N[N+](=O)[O-])NCc1cnc(Cl)s1`: the melting point lay within 170 to 172 °C.
The same measure for `CC1(C)C(=O)Oc2ccc3cc(C#N)c(Cn4cncn4)cc3c21`: 198 °C.
Compound `CC(CS)C(=O)N1CCC=C1C(=O)O` (stereo not given) registered a melting point of 112 to 114 °C.
As for `CCCCCCCCCCc1cc(CO)on1`, the melting point was in the range of 55 to 56 °C.
With `CCOC(=O)Nc1ccc2c3c(n(CCCN(C)C)c2c1)CCCCCC3`, the melting point fell in the range of 119 to 123 °C.
The same measure for `Oc1ccc(OCC(O)CNC2CCN(c3ccc(Cl)cn3)CC2)cc1` (stereo not given): 148 to 150 °C.
Regarding `O=C(NC(=S)Nc1ccc(F)cc1)c1ccccc1`, the melting point was found to be 82 °C.
As for `CCCCCc1csc2cc(OC)ccc12`, the melting point was 43 to 45 °C.
`CCc1cc2c(Cl)ccc(-n3c(=O)cc(C(F)(F)F)n(C)c3=O)c2o1` yielded a melting point of 159 to 160 °C.
Take `CCCCS(=O)(=O)c1ccc(CCc2nccn3c(CC#N)ccc23)cc1`: the melting point was in the range of 188 to 190 °C.
`CS(=O)(=O)c1ccc(C(CC2CCCC2)c2nc(Cl)c(C(=O)C3CC3)[nH]2)cc1` (stereo not given) showed a melting point of 95 to 97 °C.
The same measure for `COc1ccc2c3c([nH]c2c1)CC(NC(C)=O)CC3` (stereo not given): 192 to 193 °C; for `O=C(CC1CCCCC1=O)c1ccc(Cl)cc1` (stereo not given): 56 to 58 °C.
The same measure for `C[C@@H]1OCCN(c2cc(N3CCOCC3)nc(-n3c(CO)nc4ccccc43)n2)[C@@H]1C` (relative stereo): 125 to 128 °C; for `CS(=O)(=O)c1ccc(-c2cc(CO)nn2C2CCCCC2)cc1`: 148 °C.
On to `NC1=C2C=NN=C2N(c2ccccc2)CN1Cc1ccccc1`, for which the melting point fell in the range of 167 to 168 °C.
In turn, `O=C(O)c1ccc(NC(=O)N(Cc2ccccc2)Cc2ccccc2)cc1` gave a melting point of 210 to 214 °C.
The same measure for `CC1(C)CN(C2CC3(C)C(CCC4C5CCC(C(=O)CSC#N)C5(C)CC(=O)C43)CC2O)CCO1` (stereo not given): 197 to 198 °C.
The result for `CCOC(=O)c1cc(-c2ccccc2)n(-c2cccc(Cl)c2)c1C` reads 99.6 to 100 °C.
`Nc1nc(=O)n(COCc2ccccc2)cc1F` returned a melting point of 213 to 217 °C.
Take `CSc1cc(-c2ccccc2)nc(-c2cccc(C(F)(F)F)c2)c1`: the melting point was found to be 79.1 °C.
The same measure for `O=C(Cc1ccccc1Br)NC1CCC1`: 159 to 161 °C.
The same measure for `CC(C)n1nnc2c(NCc3ccccc3O)nc(N[C@H]3CC[C@H](N)CC3)nc21`: 120 to 123 °C.
`O=c1c(Br)cn(Cc2ccccc2)cc1Cc1ccccc1`: the melting point was in the range of 120 to 121 °C.
On to `CCc1nn(C(C)CCCc2ccccc2)c2nc(Cc3ccc(-c4cccc(N)c4)cc3)[nH]c(=O)c12` (stereo not given), for which the melting point is 108 °C.
The same measure for `Cc1nc(NC(=O)c2cnn3c(C(F)F)cc(-c4ccc(C(F)(F)F)cc4)nc23)sc1S(=O)(=O)N(C)CCO`: 216 °C; for `CC(C)C[C@@H]1NC(=O)[C@@H]1O`: 141 to 142 °C; for `Cc1oc(-c2ccccc2)nc1CCOc1ccc(CC2SC(=O)NC2=O)cc1` (stereo not given): 113 to 114 °C.
The same measure for `Cc1cc(-c2ccccc2)nnc1NN`: 162 °C; for `O=S1(=O)N(CCCl)c2cccc3c2N1CCC3`: 70 °C.
`COc1ccc(C(=O)Nc2c(Cl)cncc2Cl)c2c1OCC2CC(=O)NCc1ccccc1` (stereo not given): the melting point lay within 284 to 286 °C.
The same measure for `CCCCCCCCCCCCCCCCNc1ccc(C(=O)N(C)C)cc1`: 70 to 72 °C.
For `O=[N+]([O-])c1ccc(Sc2ncc(Cl)cn2)s1`, the melting point fell in the range of 141 to 143 °C.
